Measured values as given in patent publication US10780090B2, “Heteroaryl compounds useful as inhibitors of SUMO activating enzyme” (Millennium Pharmaceuticals, Inc., priority 2014, dated 2020).
pIC50: −log10 of the molar value.

Molecular target: recombinant human SAE enzyme (Homo sapiens (Human), UniProt Q9UBT2)
Assay: SAE HTRF enzyme assay
Format: biochemical
Settings: for pIC50: class symbols A/B/C; for inhibition at 0.111 µM: read-out: Percent Inhibition; for IC50: SAE inhibition, class symbols, legend in nM
How it was run: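 This HTRF format monitors Sumo-Flag–Ubc9-GST thioester formation catalysed by 0.11 nM human SAE with 0.5 μM ATP over 105 min at 24° C. Inhibition is expressed at a single concentration or as IC50.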

[1] = SAE inhibition at compound concentration 0.111 μM

Chain of recombinant human SAE enzyme (Q9UBT2 whole entry): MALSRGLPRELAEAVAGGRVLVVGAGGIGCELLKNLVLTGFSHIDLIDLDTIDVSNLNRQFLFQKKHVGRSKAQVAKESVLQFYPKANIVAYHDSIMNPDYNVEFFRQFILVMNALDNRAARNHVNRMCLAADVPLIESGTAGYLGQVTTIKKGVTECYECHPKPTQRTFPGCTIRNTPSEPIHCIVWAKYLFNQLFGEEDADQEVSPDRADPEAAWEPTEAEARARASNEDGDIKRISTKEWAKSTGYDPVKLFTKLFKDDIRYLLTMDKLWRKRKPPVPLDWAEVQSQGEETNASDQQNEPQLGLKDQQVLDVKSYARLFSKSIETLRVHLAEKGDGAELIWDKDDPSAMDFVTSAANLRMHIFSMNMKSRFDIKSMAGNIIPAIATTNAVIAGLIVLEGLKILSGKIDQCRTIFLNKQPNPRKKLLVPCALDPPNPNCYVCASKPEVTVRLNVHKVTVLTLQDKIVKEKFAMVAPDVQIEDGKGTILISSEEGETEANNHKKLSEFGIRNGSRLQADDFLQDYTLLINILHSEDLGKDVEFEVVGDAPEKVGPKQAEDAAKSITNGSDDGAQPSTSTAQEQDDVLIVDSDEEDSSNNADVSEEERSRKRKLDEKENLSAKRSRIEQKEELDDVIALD
Chain of recombinant human SAE enzyme (Q9UBE0 whole entry partner): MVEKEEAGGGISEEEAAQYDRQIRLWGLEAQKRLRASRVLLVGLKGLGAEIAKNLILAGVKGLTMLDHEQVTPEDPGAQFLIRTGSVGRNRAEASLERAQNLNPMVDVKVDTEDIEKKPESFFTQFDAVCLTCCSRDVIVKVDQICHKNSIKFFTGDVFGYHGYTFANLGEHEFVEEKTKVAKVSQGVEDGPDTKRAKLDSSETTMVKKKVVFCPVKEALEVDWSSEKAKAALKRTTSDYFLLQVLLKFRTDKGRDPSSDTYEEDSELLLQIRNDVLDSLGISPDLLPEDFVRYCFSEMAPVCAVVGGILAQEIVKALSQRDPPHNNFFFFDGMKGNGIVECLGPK

Structure (SMILES) | Percent Inhibition (Concentration 0.111 μM) | pIC50 | inhibition at 0.111 µM (Concentration 0.111 μM) [%] | Percent Inhibition [1] [%] | IC50 [nM]
Cc1sc(C(=O)c2cncnc2NC2CC(O)C(COS(N)(=O)=O)C2)cc1[S+]([O-])c1ccccc1 (mixture of isomers) [I-68, [(1R,2S,4R)-2-hydroxy-4-{[5-({5-methyl-4-[(R)-phenylsulfinyl]-2-thienyl}carbonyl)pyrimidin-4-yl]amino}cyclopentyl]methyl sulfamate and [(1R,2S,4R)-2-hydroxy-4-{[5-({5-methyl-4-[(S)-phenylsulfinyl]-2-thienyl}carbonyl)pyrimidin-4-yl]amino}cyclopentyl]methyl sulfamate] | 98 | > 8.00 | – | – | –
NS(=O)(=O)OC[C@H]1C[C@@H](Nc2ncncc2C(=O)c2cc(Cc3ccc(Cl)o3)cs2)C[C@@H]1O [I-66, [(1R,2S,4R)-4-{[5-({4-[(5-chloro-2-furyl)methyl]-2-thienyl}carbonyl)pyrimidin-4-yl]amino}-2-hydroxycyclopentyl]methyl sulfamate] | – | > 8.00 | 98 | – | –
NS(=O)(=O)OC[C@H]1C[C@@H](Nc2ncncc2C(=O)c2cc(CC3CCCCC3)cs2)C[C@@H]1O [I-199, {(1R,2S,4R)-4-[(5-{[4-(Cyclohexylmethyl)-2-thienyl]carbonyl}pyrimidin-4-yl)amino]-2-hydroxycyclopentyl}methyl sulfamate] | – | 7.00 to 8.00 | 63 | – | –
CN[C@@H](c1cccc(Cl)c1)c1cc(C(=O)c2cncnc2N[C@@H]2C[C@H](COS(N)(=O)=O)[C@@H](O)C2)sc1Cl.CN[C@H](c1cccc(Cl)c1)c1cc(C(=O)c2cncnc2N[C@@H]2C[C@H](COS(N)(=O)=O)[C@@H](O)C2)sc1Cl (mixture of isomers) [I-95, [(1R,2S,4R)-4-{[5-({5-Chloro-4-[(S)-(3-chlorophenyl)(methylamino)methyl]-2-thienyl}carbonyl)pyrimidin-4-yl]amino}-2-hydroxycyclopentyl]methyl sulfamate and [(1R,2S,4R)-4 {[5-({5-Chloro-4-[(R)-(3-chlorophenyl)(methylamino)methyl]-2-thienyl}carbonyl)pyrimidin-4-yl]amino}-2-hydroxycyclopentyl]methyl sulfamate] | 97 | > 8.00 | – | – | –
NS(=O)(=O)OC[C@H]1C[C@@H](Nc2ncncc2C(=O)c2cc([C@@H]3OCCc4ccc(F)cc43)cs2)C[C@@H]1O (single isomer, unassigned) [I-267a, [(1R,2S,4R)-4-{[5-({4-[(1R)-7-fluoro-3,4-dihydro-1H-isochromen-1-yl]-2-thienyl}carbonyl)pyrimidin-4-yl]amino}-2-hydroxycyclopentyl]methyl sulfamate or [(1R,2S,4R)-4-{[5-({4-[(1S)-7-fluoro-3,4-dihydro-1H-isochromen-1-yl]-2-thienyl}carbonyl)pyrimidin-4-yl]amino}-2-hydroxycyclopentyl]methyl sulfamate] | 65 | 7.00 to 8.00 | – | – | –
NS(=O)(=O)OC[C@H]1C[C@@H](Nc2ncncc2C(=O)c2cc([C@@H]3OCCc4ccccc43)cs2)C[C@@H]1O.NS(=O)(=O)OC[C@H]1C[C@@H](Nc2ncncc2C(=O)c2cc([C@H]3OCCc4ccccc43)cs2)C[C@@H]1O (mixture of isomers) [I-254, [(1R,2S,4R)-4-{[5-({4-[(1R)-3,4-dihydro-1H-isochromen-1-yl]-2-thienyl}carbonyl)pyrimidin-4-yl]amino}-2-hydroxycyclopentyl]methyl sulfamate and [(1R,2S,4R)-4-{[5-({4-[(1S)-3,4-dihydro-1H-isochromen-1-yl]-2-thienyl}carbonyl)pyrimidin-4-yl]amino}-2-hydroxycyclopentyl]methyl sulfamate] | 99 | > 8.00 | – | – | –
CC(O)(c1cccc(Br)c1)c1csc(C(=O)c2cncnc2N[C@@H]2C[C@H](COS(N)(=O)=O)[C@@H](O)C2)c1 (single isomer, unassigned) [I-3b, [(1R,2S,4R)-4-{[5-({4-[(1R)-1-(3-bromophenyl)-1-hydroxyethyl]-2-thienyl}carbonyl)pyrimidin-4-yl]amino}-2-hydroxycyclopentyl]methyl sulfamate or [(1R,2S,4R)-4-{[5-({4-[(1S)-1-(3-bromophenyl)-1-hydroxyethyl]-2-thienyl}carbonyl)pyrimidin-4-yl]amino}-2-hydroxycyclopentyl]methyl sulfamate] | 100 | > 8.00 | – | – | –
Cc1sc(C(=O)c2cncnc2N[C@@H]2C[C@H](COS(N)(=O)=O)[C@@H](O)C2)cc1CN1CCc2ccc(C#N)cc21 [I-128, [(1R,2S,4R)-4-{[5-({4-[(6-cyano-2,3-dihydro-1H-indol-1-yl)methyl]-5-methyl-2-thienyl}carbonyl)pyrimidin-4-yl]amino}-2-hydroxycyclopentyl]methyl sulfamate] | – | > 8.00 | 95 | – | –
NS(=O)(=O)OC[C@H]1C[C@@H](Nc2ncncc2C(=O)c2cc([C@@H]3OCCc4ccc(F)cc43)cs2)C[C@@H]1O (single isomer, unassigned) [I-267, [(1R,2S,4R)-4-{[5-({4-[(1R)-7-Fluoro-3,4-dihydro-1H-isochromen-1-yl]-2-thienyl}carbonyl)pyrimidin-4-yl]amino}-2-hydroxycyclopentyl]methyl sulfamate or [(1R,2S,4R)-4-{[5-({4-[(1S)-7-Fluoro-3,4-dihydro-1H-isochromen-1-yl]-2-thienyl}carbonyl)pyrimidin-4-yl]amino}-2-hydroxycyclopentyl]methyl sulfamate] | 97 | > 8.00 | – | – | –
NS(=O)(=O)OC[C@H]1C[C@@H](Nc2ncncc2C(=O)c2cc([C@H]3NCCc4ccccc43)c(Cl)s2)C[C@@H]1O (single isomer, unassigned) [I-279a, [(1R,2S,4R)-4-{[5-({5-chloro-4-[(1S)-1,2,3,4-tetrahydroisoquinolin-1-yl]-2-thienyl}carbonyl)pyrimidin-4-yl]amino}-2-hydroxycyclopentyl]methyl sulfamate or [(1R,2S,4R)-4-{[5-({5-chloro-4-[(1R)-1,2,3,4-tetrahydroisoquinolin-1-yl]-2-thienyl}carbonyl)pyrimidin-4-yl]amino}-2-hydroxycyclopentyl]methyl sulfamate] | 100 | > 8.00 | – | – | –
Cc1sc(C(=O)c2cncnc2N[C@@H]2C[C@H](COS(N)(=O)=O)[C@@H](O)C2)nc1[C@H](O)c1cccc(Cl)c1 (single isomer, unassigned) [I-355b, [(1R,2S,4R)-4-{[5-({4-[(R)-(3-chlorophenyl)(hydroxy)methyl]-5-methyl-1,3-thiazol-2-yl}carbonyl)pyrimidin-4-yl]amino}-2-hydroxycyclopentyl]methyl sulfamate or [(1R,2S,4R)-4-{[5-({4-[(S)-(3-chlorophenyl)(hydroxy)methyl]-5-methyl-1,3-thiazol-2-yl}carbonyl)pyrimidin-4-yl]amino}-2-hydroxycyclopentyl]methyl sulfamate] | – | – | – | 71 | 10 to 100
NS(=O)(=O)OC[C@H]1C[C@@H](Nc2ncncc2C(=O)c2cc(CC3=CCCCC3)cs2)C[C@@H]1O [I-140, {(1R,2S,4R)-4-[(5-{[4-(Cyclohex-1-en-1-ylmethyl)-2-thienyl]carbonyl}pyrimidin-4-yl)amino]-2-hydroxycyclopentyl}methyl sulfamate] | – | > 8.00 | 93 | – | –
NS(=O)(=O)OC[C@H]1C[C@@H](Nc2ncncc2C(=O)c2ccc(CO)o2)C[C@@H]1O [I-206, [(1R,2S,4R)-2-hydroxy-4-({5-[5-(hydroxymethyl)-2-furoyl]pyrimidin-4-yl}amino)cyclopentyl]methyl sulfamate] | – | 6.00 to 7.00 | 49 | – | –
Cc1cn2c(n1)[C@H](c1cc(C(=O)c3cncnc3N[C@@H]3C[C@H](COS(N)(=O)=O)[C@@H](O)C3)sc1C)OCC2 (mixture of isomers) [I-309, [(1R,2S,4R)-2-hydroxy-4-{[5-({5-methyl-4-[(8S)-2-methyl-5,6-dihydro-8H-imidazo[2,1-c][1,4]oxazin-8-yl]-2-thienyl}carbonyl)pyrimidin-4-yl]amino}cyclopentyl]methyl sulfamate and [(1R,2S,4R)-2-hydroxy-4-{[5-({5-methyl-4-[(8R)-2-methyl-5,6-dihydro-8H-imidazo[2,1-c][1,4]oxazin-8-yl]-2-thienyl}carbonyl)pyrimidin-4-yl]amino}cyclopentyl]methyl sulfamate] | – | – | – | 98 | < 10
NS(=O)(=O)OC[C@H]1C[C@@H](Nc2ncncc2C(=O)c2cc([C@@H]3NCCc4ccc(Cl)cc43)c(Cl)s2)[C@H](O)[C@@H]1O (single isomer, unassigned) [I-249a, [(1R,2R,3S,4R)-4-{[5-({5-chloro-4-[(1R)-7-chloro-1,2,3,4-tetrahydroisoquinolin-1-yl]-2-thienyl}carbonyl)pyrimidin-4-yl]amino}-2,3-dihydroxycyclopentyl]methyl sulfamate or [(1R,2R,3S,4R)-4-{[5-({5-chloro-4-[(1S)-7-chloro-1,2,3,4-tetrahydroisoquinolin-1-yl]-2-thienyl}carbonyl)pyrimidin-4-yl]amino}-2,3-dihydroxycyclopentyl]methyl sulfamate] | 100 | > 8.00 | – | – | –
Cc1nc2c(s1)CCO[C@H]2c1cc(C(=O)c2cncnc2N[C@@H]2C[C@H](COS(N)(=O)=O)[C@@H](O)C2)sc1C (single isomer, unassigned) [I-287b, [(1R,2S,4R)-2-hydroxy-4-{[5-({5-methyl-4-[(4S)-2-methyl-6,7-dihydro-4H-pyrano[3,4-d][1,3]thiazol-4-yl]-2-thienyl}carbonyl)pyrimidin-4-yl]amino}cyclopentyl]methyl sulfamate or [(1R,2S,4R)-2-hydroxy-4-{[5-({5-methyl-4-[(4R)-2-methyl-6,7-dihydro-4H-pyrano[3,4-d][1,3]thiazol-4-yl]-2-thienyl}carbonyl)pyrimidin-4-yl]amino}cyclopentyl]methyl sulfamate] | – | – | – | 98 | < 10
